From PubChem BioAssay AID1963978 (Molecular Pharmacology Branch, DTP, NCI, 2024)

System: 616215-338-R-J1-PDC spheroids with HUVEC/MSC, viability
Assay: Anticancer human tumor 616215-338-R-J1-PDC patient-derived colon adenocarcinoma cell line growth inhibition [PI3K]
Conditions: for IC50: curve of first compound; for viability, T/C: stronger effect = lower value; active means viability on the fitted dose curve at most 10% of control; inactive means the rest
Summary of the method: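 Stroma-containing spheroids: tumor line, pooled-donor HUVEC, hMSC. Treatments: targeted agents with PI3K inhibitors. Dosing: clinically relevant, half-log spacing, 10 microM ceiling without known Cmax. Read-out: cell viability.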

[1] = second compound 0.0316 µM, first compound 0.0316 µM
[2] = second compound 0.0316 µM, first compound 0.1 µM
[3] = second compound 0.0316 µM, first compound 0.316 µM
[4] = second compound 0.0316 µM, first compound 1 µM
[5] = second compound 0.0316 µM, first compound 3.16 µM
[6] = second compound 0.0316 µM, first compound 10 µM
[7] = second compound 0.1 µM, first compound 0.0316 µM
[8] = second compound 0.1 µM, first compound 0.1 µM
[9] = second compound 0.1 µM, first compound 0.316 µM
[10] = second compound 0.1 µM, first compound 1 µM
[11] = second compound 0.1 µM, first compound 3.16 µM
[12] = second compound 0.1 µM, first compound 10 µM
[13] = second compound 0.316 µM, first compound 0.0316 µM
[14] = second compound 0.316 µM, first compound 0.1 µM
[15] = second compound 0.316 µM, first compound 0.316 µM
[16] = second compound 0.316 µM, first compound 1 µM
[17] = second compound 0.316 µM, first compound 3.16 µM
[18] = second compound 0.316 µM, first compound 10 µM
[19] = second compound 1 µM, first compound 0.0316 µM
[20] = second compound 1 µM, first compound 0.1 µM
[21] = second compound 1 µM, first compound 0.316 µM
[22] = second compound 1 µM, first compound 1 µM
[23] = second compound 1 µM, first compound 3.16 µM
[24] = second compound 1 µM, first compound 10 µM
[25] = second compound 3.16 µM, first compound 0.0316 µM
[26] = second compound 3.16 µM, first compound 0.1 µM
[27] = second compound 3.16 µM, first compound 0.316 µM
[28] = second compound 3.16 µM, first compound 1 µM
[29] = second compound 3.16 µM, first compound 3.16 µM
[30] = second compound 3.16 µM, first compound 10 µM
[31] = second compound 10 µM, first compound 0.0316 µM
[32] = second compound 10 µM, first compound 0.1 µM
[33] = second compound 10 µM, first compound 0.316 µM
[34] = second compound 10 µM, first compound 1 µM
[35] = second compound 10 µM, first compound 3.16 µM
[36] = second compound 10 µM, first compound 10 µM
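Further: spheroids exposed to agents for seven days before the viability read.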

C=CC(=O)N1CCN(c2nc(=O)n(-c3c(C)ccnc3C(C)C)c3nc(-c4c(O)cccc4F)c(F)cc23)C(C)C1 (stereo not given) + Cc1nc(NC(=O)N2CCCC2C(N)=O)sc1-c1ccnc(C(C)(C)C(F)(F)F)c1
inactive: viability, T/C [1] 104% | viability, T/C [2] 92.1% | viability, T/C [3] 99.2% | viability, T/C [4] 88.3% | viability, T/C [5] 113% | viability, T/C [6] 95.2% | viability, T/C [7] 100% | viability, T/C [8] 92.7% | viability, T/C [9] 91.6% | viability, T/C [10] 98.8% | viability, T/C [11] 103% | viability, T/C [12] 90.3% | viability, T/C [13] 108% | viability, T/C [14] 103% | viability, T/C [15] 111% | viability, T/C [16] 101% | viability, T/C [17] 104% | viability, T/C [18] 86.5% | viability, T/C [19] 97.5% | viability, T/C [20] 93.3% | viability, T/C [21] 109% | viability, T/C [22] 99.1% | viability, T/C [23] 110% | viability, T/C [24] 84.9% | viability, T/C [25] 98.6% | viability, T/C [26] 98.3% | viability, T/C [27] 102% | viability, T/C [28] 89.5% | viability, T/C [29] 95.8% | viability, T/C [30] 80.2% | viability, T/C [31] 94.4% | viability, T/C [32] 86.7% | viability, T/C [33] 98.7% | viability, T/C [34] 91.1% | viability, T/C [35] 95.9% | viability, T/C [36] 83.6%
> 10 µM: IC50 (second compound 0.0316 µM) | IC50 (second compound 0.1 µM) | IC50 (second compound 0.316 µM) | IC50 (second compound 1 µM) | IC50 (second compound 3.16 µM) | IC50 (second compound 10 µM)

CC(Cn1ccc(-c2ccc(C#N)c(Cl)c2)n1)NC(=O)c1cc(C(C)O)[nH]n1 (stereo not given) + Cc1nc(NC(=O)N2CCCC2C(N)=O)sc1-c1ccnc(C(C)(C)C(F)(F)F)c1
inactive: viability, T/C [1] 105% | viability, T/C [2] 101% | viability, T/C [3] 114% | viability, T/C [4] 97.5% | viability, T/C [5] 102% | viability, T/C [6] 103% | viability, T/C [7] 94.3% | viability, T/C [8] 89.8% | viability, T/C [9] 98.1% | viability, T/C [10] 95.7% | viability, T/C [11] 101% | viability, T/C [12] 97.4% | viability, T/C [13] 98.6% | viability, T/C [14] 104% | viability, T/C [15] 104% | viability, T/C [16] 99.7% | viability, T/C [17] 108% | viability, T/C [18] 95.5% | viability, T/C [19] 111% | viability, T/C [20] 102% | viability, T/C [21] 95.4% | viability, T/C [22] 102% | viability, T/C [23] 100% | viability, T/C [24] 98.5% | viability, T/C [25] 101% | viability, T/C [26] 99.5% | viability, T/C [27] 96.7% | viability, T/C [28] 103% | viability, T/C [29] 96.1% | viability, T/C [30] 108% | viability, T/C [31] 105% | viability, T/C [32] 100% | viability, T/C [33] 90.8% | viability, T/C [34] 99.3% | viability, T/C [35] 95.9% | viability, T/C [36] 84.1%
> 10 µM: IC50 (second compound 0.0316 µM) | IC50 (second compound 0.1 µM) | IC50 (second compound 0.316 µM) | IC50 (second compound 1 µM) | IC50 (second compound 3.16 µM) | IC50 (second compound 10 µM)

CCN1CCN(Cc2ccc(Nc3ncc(F)c(-c4cc(F)c5nc(C)n(C(C)C)c5c4)n3)nc2)CC1 + Cc1nc(NC(=O)N2CCCC2C(N)=O)sc1-c1ccnc(C(C)(C)C(F)(F)F)c1
inactive: viability, T/C (second compound 0.0316 µM, first compound 0.00316 µM) 94% | viability, T/C (second compound 0.0316 µM, first compound 0.01 µM) 90.8% | viability, T/C [1] 98.5% | viability, T/C [2] 101% | viability, T/C [3] 110% | viability, T/C [4] 134% | viability, T/C (second compound 0.1 µM, first compound 0.00316 µM) 107% | viability, T/C (second compound 0.1 µM, first compound 0.01 µM) 120% | viability, T/C [7] 96.9% | viability, T/C [8] 105% | viability, T/C [9] 114% | viability, T/C [10] 113% | viability, T/C (second compound 0.316 µM, first compound 0.00316 µM) 113% | viability, T/C (second compound 0.316 µM, first compound 0.01 µM) 104% | viability, T/C [13] 111% | viability, T/C [14] 115% | viability, T/C [15] 131% | viability, T/C [16] 110% | viability, T/C (second compound 1 µM, first compound 0.00316 µM) 92.5% | viability, T/C (second compound 1 µM, first compound 0.01 µM) 99% | viability, T/C [19] 101% | viability, T/C [20] 108% | viability, T/C [21] 120% | viability, T/C [22] 83.9% | viability, T/C (second compound 3.16 µM, first compound 0.00316 µM) 96.7% | viability, T/C (second compound 3.16 µM, first compound 0.01 µM) 105% | viability, T/C [25] 106% | viability, T/C [26] 103% | viability, T/C [27] 91.9% | viability, T/C [28] 84.1% | viability, T/C (second compound 10 µM, first compound 0.00316 µM) 91.3% | viability, T/C (second compound 10 µM, first compound 0.01 µM) 82.7% | viability, T/C [31] 92.3% | viability, T/C [32] 74.6% | viability, T/C [33] 68.9% | viability, T/C [34] 52.1%
> 1 µM: IC50 (second compound 0.0316 µM) | IC50 (second compound 0.1 µM) | IC50 (second compound 0.316 µM) | IC50 (second compound 1 µM) | IC50 (second compound 3.16 µM) | IC50 (second compound 10 µM)

Cn1ncc(Cl)c1-c1cc(C(=O)NC(CN)Cc2cccc(F)c2)sc1Cl (stereo not given) + Cc1nc(NC(=O)N2CCCC2C(N)=O)sc1-c1ccnc(C(C)(C)C(F)(F)F)c1
6.48 µM: IC50 (second compound 0.316 µM)
9.17 µM: IC50 (second compound 1 µM)
inactive: viability, T/C [1] 96% | viability, T/C [2] 93.5% | viability, T/C [3] 102% | viability, T/C [4] 91.5% | viability, T/C [5] 82.5% | viability, T/C [6] 35.2% | viability, T/C [7] 102% | viability, T/C [8] 95.8% | viability, T/C [9] 92.3% | viability, T/C [10] 89% | viability, T/C [11] 76.3% | viability, T/C [12] 36.4% | viability, T/C [13] 99.4% | viability, T/C [14] 96% | viability, T/C [15] 98.8% | viability, T/C [16] 96.8% | viability, T/C [17] 67.6% | viability, T/C [18] 39.4% | viability, T/C [19] 109% | viability, T/C [20] 92.9% | viability, T/C [21] 106% | viability, T/C [22] 98.4% | viability, T/C [23] 73.7% | viability, T/C [24] 48.1% | viability, T/C [25] 91.8% | viability, T/C [26] 95% | viability, T/C [27] 94.1% | viability, T/C [28] 87.7% | viability, T/C [29] 70% | viability, T/C [30] 32.6% | viability, T/C [31] 89.9% | viability, T/C [32] 90.9% | viability, T/C [33] 86.3% | viability, T/C [34] 70.5% | viability, T/C [35] 59.6% | viability, T/C [36] 22.8%
6.73 µM: IC50 (second compound 0.1 µM)
4.01 µM: IC50 (second compound 10 µM)
6.95 µM: IC50 (second compound 0.0316 µM)
5.85 µM: IC50 (second compound 3.16 µM)

Cn1nccc1Nc1nccc(-c2ccn(C(CO)c3ccc(Cl)c(F)c3)c(=O)c2)n1 (stereo not given) + Cc1nc(NC(=O)N2CCCC2C(N)=O)sc1-c1ccnc(C(C)(C)C(F)(F)F)c1
3.46 µM: IC50 (second compound 0.0316 µM)
1.58 µM: IC50 (second compound 1 µM)
active: viability, T/C [35] 5.53% | viability, T/C [36] 1.47%
0.739 µM: IC50 (second compound 3.16 µM)
inactive: viability, T/C [1] 106% | viability, T/C [2] 81.5% | viability, T/C [3] 83.8% | viability, T/C [4] 68.9% | viability, T/C [5] 47.8% | viability, T/C [6] 37.1% | viability, T/C [7] 97.2% | viability, T/C [8] 97.9% | viability, T/C [9] 86.2% | viability, T/C [10] 58.3% | viability, T/C [11] 56.6% | viability, T/C [12] 33.1% | viability, T/C [13] 96.7% | viability, T/C [14] 86% | viability, T/C [15] 87.6% | viability, T/C [16] 72.1% | viability, T/C [17] 40.7% | viability, T/C [18] 29.1% | viability, T/C [19] 92.4% | viability, T/C [20] 97.8% | viability, T/C [21] 67.8% | viability, T/C [22] 57.7% | viability, T/C [23] 42.1% | viability, T/C [24] 26.8% | viability, T/C [25] 96% | viability, T/C [26] 89.3% | viability, T/C [27] 68% | viability, T/C [28] 39.3% | viability, T/C [29] 32.4% | viability, T/C [30] 13.9% | viability, T/C [31] 94.2% | viability, T/C [32] 83.9% | viability, T/C [33] 70.2% | viability, T/C [34] 29.7%
2.98 µM: IC50 (second compound 0.1 µM)
2.27 µM: IC50 (second compound 0.316 µM)
0.552 µM: IC50 (second compound 10 µM)
